How the values were obtained:
Type in all cases: cell-based
[1] = target: T1, 17β-hydroxysteroid dehydrogenase type 1 (17β-HSD type 1) (Homo sapiens, UniProt P14061); assay: Inhibition of 17β-HSD type 1 in MCF-7 cells stably expressing the isoenzyme (tritium labeled estrone conversion, HPLC); conditions: MCF7, MCF-7 cells expressing 17β-HSD type 1, 2 nM tritium labeled estrone; for inhibition at 1 µM: 1 μM test compound, read-out: % Inhibition HSD1 1 μM; for inhibition at 10 µM: 10 μM test compound, read-out: % Inhibition HSD1 10 μM
T1 construct: expressed in transfected cells; host or cells: MCF-7
T1 sequence (P14061 1-328): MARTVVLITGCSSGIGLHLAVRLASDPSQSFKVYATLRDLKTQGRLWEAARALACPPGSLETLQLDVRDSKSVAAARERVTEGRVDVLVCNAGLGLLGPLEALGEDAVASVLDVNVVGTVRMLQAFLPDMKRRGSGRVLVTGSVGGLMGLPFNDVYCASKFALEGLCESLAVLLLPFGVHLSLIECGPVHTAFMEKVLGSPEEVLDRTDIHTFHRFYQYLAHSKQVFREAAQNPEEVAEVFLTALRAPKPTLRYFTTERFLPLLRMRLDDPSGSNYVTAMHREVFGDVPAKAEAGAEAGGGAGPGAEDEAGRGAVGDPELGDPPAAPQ
From the text: (§1) Biological Testing Materials and Methods 1. Inhibition of the 17β-hydroxysteroid dehydrocienase type 1, type 2 and type 3 enzyme
(§2) The compounds were screened in respect of 17β-HSD enzyme activity in vitro on established MCF-7 cell lines, each stably expressing one of the respective 17β-HSD isoenzymes. The interconversion of substrate by each isoenzyme and the 17β-HSD inhibiting activity of chemical compounds in these cell lines were detected by HPLC system.
(§3) Varying amounts of the test compounds were incubated in the growth medium of the 17β-HSD expressing cells together tritium labeled substrate (2 nM estrone for 17β-HSD type 1; 2 nM estradiol for 17β-HSD type 2; and 2 nM androstenedione for 17β-HSD type 3). The medium samples were removed after exact incubation time and the reaction is stopped by trichloroacetic acid (TCA). The samples were analyzed by HPLC-coupled flow scintillation analysis.
(§4) For each enzyme type, the HSD-inhibiting activity of an individual test compound was calculated by comparing the conversion of a control sample without any test compound (referred to as “Negative Control”) to the (reduced) conversion of the test sample containing the particular compound to be tested (referred to as “Test Sample”).
(§5) Two concentrations of each compound were used. The number of the compound refers to the numbers indicated in the Experimental Section.

[2] = target: T2, 17β-hydroxysteroid dehydrogenase type 2 (17β-HSD type 2) (Homo sapiens, UniProt P37059); assay: Inhibition of 17β-HSD type 2 in MCF-7 cells stably expressing the isoenzyme (tritium labeled estradiol conversion, HPLC); conditions: MCF7, MCF-7 cells expressing 17β-HSD type 2, 2 nM tritium labeled estradiol; for inhibition at 1 µM: 1 μM test compound, read-out: % Inhibition HSD2 1 μM; for inhibition at 10 µM: 10 μM test compound, read-out: % Inhibition HSD2 10 μM
T2 construct: expressed in transfected cells; host or cells: MCF-7
T2 sequence (P37059 1-387): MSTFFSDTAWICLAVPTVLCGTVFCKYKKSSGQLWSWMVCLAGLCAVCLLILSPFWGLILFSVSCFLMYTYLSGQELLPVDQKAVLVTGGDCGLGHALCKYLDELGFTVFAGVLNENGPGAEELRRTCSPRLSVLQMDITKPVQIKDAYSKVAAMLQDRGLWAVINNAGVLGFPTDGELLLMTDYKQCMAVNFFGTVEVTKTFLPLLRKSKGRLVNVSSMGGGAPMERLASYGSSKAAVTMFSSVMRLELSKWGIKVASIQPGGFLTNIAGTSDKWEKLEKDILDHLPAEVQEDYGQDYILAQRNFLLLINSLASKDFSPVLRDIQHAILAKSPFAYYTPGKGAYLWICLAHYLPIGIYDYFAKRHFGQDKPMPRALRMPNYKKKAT
From the text: as §1, §2, §3, §4, §5

[3] = target: T3, 17β-hydroxysteroid dehydrogenase type 3 (17β-HSD type 3) (Homo sapiens, UniProt P37058); assay: Inhibition of 17β-HSD type 3 in MCF-7 cells stably expressing the isoenzyme (tritium labeled androstenedione conversion, HPLC); conditions: MCF7, MCF-7 cells expressing 17β-HSD type 3, 2 nM tritium labeled androstenedione; for inhibition at 1 µM: 1 μM test compound, read-out: % Inhibition HSD3 1 μM; for inhibition at 10 µM: 10 μM test compound, read-out: % Inhibition HSD3 10 μM
T3 construct: expressed in transfected cells; host or cells: MCF-7
T3 sequence (P37058 1-310): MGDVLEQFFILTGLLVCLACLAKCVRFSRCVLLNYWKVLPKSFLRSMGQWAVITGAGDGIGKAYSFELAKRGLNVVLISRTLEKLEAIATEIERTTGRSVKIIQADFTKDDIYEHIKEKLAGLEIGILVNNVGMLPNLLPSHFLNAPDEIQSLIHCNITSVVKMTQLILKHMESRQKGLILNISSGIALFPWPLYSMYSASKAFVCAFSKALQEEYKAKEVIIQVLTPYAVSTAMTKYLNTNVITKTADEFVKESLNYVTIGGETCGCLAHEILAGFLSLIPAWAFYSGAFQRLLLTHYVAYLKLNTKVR
From the text: as §1, §2, §3, §4, §5

Structure (SMILES)	inhibition at 1 µM [1] [%]	inhibition at 10 µM [1] [%]	inhibition at 1 µM [2] [%]	inhibition at 10 µM [2] [%]	inhibition at 1 µM [3] [%]	inhibition at 10 µM [3] [%]
COc1ccc(-c2nc3sc4c(c3c(=O)n2Cc2ccccc2)CCCC4=O)cc1 [No. 13, 3-Benzyl-2-(p-methoxyphenyl)-6,7-dihydro-3H,5H-benzo[4,5]thieno[2,3-d]pyrimidine-4,8-dione]	28	43.6	19.5	19.9	3	59.1
COc1ccc(-c2nc3sc4c(c3c(=O)n2Cc2ccccc2)CCC(C=O)=C4Cl)cc1 [No. 14]	8.6	29.7	0.5	18.8	22.7	80.8
CCOC(=O)C1=Cc2sc3nc(-c4ccc(OC)cc4)n(Cc4ccccc4)c(=O)c3c2CC1 [No. 15, 3-Benzyl-2-(p-methoxyphenyl)-4-oxo-3,4,5,6-tetrahydro-benzo[4,5]thieno[2,3-d]pyrimidine-7-carboxylic acid ethyl ester]	-9.9	-6.5	-5.5	7.3	18.5	61.2
CCSC1=C(C=O)CCc2c1sc1nc(-c3ccc(OC)cc3)n(Cc3ccccc3)c(=O)c21 [No. 16, 3-Benzyl-8-ethylsulfanyl-2-(p-methoxyphenyl)-4-oxo-3,4,5,6-tetrahydro-benzo[4,5]thieno[2,3-d]pyrimidine-7-carbaldehyde]	1.7	33.5	5	20.1	75.7	100
CCSC1=C(CO)CCc2c1sc1nc(-c3ccc(OC)cc3)n(Cc3ccccc3)c(=O)c21 [No. 19]	10.2	32	4.9	21.1	32.7	100
Cc1nc2sc3c(c2c(=O)n1-c1ccccc1)CCCC3 [No. 24, 2-Methyl-3-phenyl-5,6,7,8-tetrahydro-3H-benzo[4,5]thieno[2,3-d]pyrimidin-4-one]	-7.5	15.4	4.1	9.7	17.1	30.9
COC(=O)Cc1nc2sc3c(c2c(=O)n1Cc1ccccc1)CCCC3 [No. 26, 2-(acetic acid methyl ester)-3-benzyl-5,6,7,8-tetrahydro-3H-benzo[4,5]thieno[2,3-d]pyrimidin-4-one]	23.5	37.4	-1.8	32.3	-6.1	7.1
CC(=O)OCc1nc2sc3c(c2c(=O)n1Cc1ccccc1)CCCC3 [No. 29, Acetic acid 3-benzyl-4-oxo-3,4,5,6,7,8-hexahydro-benzo[4,5]thieno[2,3-d]pyrimidin-2-ylmethyl ester]	9	15.5	8.5	21.1	16.9	28.4

Second part, the compound after the results:

inhibition at 1 µM [1] [%]	inhibition at 10 µM [1] [%]	inhibition at 1 µM [2] [%]	inhibition at 10 µM [2] [%]	inhibition at 1 µM [3] [%]	inhibition at 10 µM [3] [%]	Structure (SMILES)
18.1	48.3	-5.4	20.9	43.5	100	COc1ccc(-c2nc3sc4cc(C=O)ccc4c3c(=O)n2Cc2ccccc2)cc1 [No. 17, 3-Benzyl-2-(p-methoxyphenyl)-4-oxo-3,4-dihydro-benzo[4,5]thieno[2,3-d]pyrimidine-7-carbaldehyde]
12.1	25.9	0	15.1	66.1	100	CCSc1c(C=O)ccc2c1sc1nc(-c3ccc(OC)cc3)n(Cc3ccccc3)c(=O)c12 [No. 18, 3-Benzyl-8-ethylsulfanyl-2-(p-methoxyphenyl)-4-oxo-3,4-dihydro-benzo[4,5]thieno[2,3-d]pyrimidine-7-carbaldehyde]
26	37.5	-1.7	16.6	9.9	61.1	COc1ccc(-c2nc3sc4c(Oc5ccccc5)c(CO)ccc4c3c(=O)n2Cc2ccccc2)cc1 [No. 20, 3-Benzyl-7-hydroxymethyl-2-(p-methoxyphenyl)-8-phenoxy-3H-benzo[4,5]thieno[2,3-d]pyrimidin-4-one]
-1.8	-4.4	-0.8	12.7	-4.8	6.4	COc1ccc(-c2nc3sc4c(Oc5ccccc5)c(C)ccc4c3c(=O)n2Cc2ccccc2)cc1 [No. 21, 3-Benzyl-7-methyl-2-(p-methoxyphenyl)-8-phenoxy-3H-benzo[4,5]thieno[2,3-d]pyrimidin-4-one]
26	38.1	13	14.9	-1.8	28.6	COc1ccc(-c2nc3sc4c(c3c(=O)n2-c2ccccc2)CCCC4)cc1 [No. 22, 3-Phenyl-2-(p-methoxyphenyl)-5,6,7,8-tetrahydro-3H-benzo[4,5]thieno[2,3-d]pyrimidin-4-one]
18.6	45.3	6.8	9.4	6.8	15.4	COc1ccc(-c2nc3sc4c(c3c(=O)n2-c2ccccc2)CCCC4=O)cc1 [No. 23, 3-Phenyl-2-(p-methoxyphenyl)-6,7-dihydro-3H,5H-benzo[4,5]thieno[2,3-d]pyrimidin-4,8-dione]
5.9	13.8	5.5	7.9	25.7	29	Cc1nc2sc3c(c2c(=O)n1-c1ccccc1)CCCC3=O [No. 25, 2-Methyl-3-phenyl-6,7-dihydro-3H,5H-benzo[4,5]thieno[2,3-d]pyrimidine-4,8-dione]
11.2	32.3	8.5	7.2	-14.4	12.2	COCc1nc2sc3c(c2c(=O)n1Cc1ccccc1)CCCC3 [No. 27, 3-Benzyl-2-methoxymethyl-5,6,7,8-tetrahydro-3H-benzo[4,5]thieno[2,3-d]pyrimidin-4-one]
2.6	18	12.9	16.3	1.9	16.7	O=c1c2c3c(sc2nc(CO)n1Cc1ccccc1)CCCC3 [No. 28, 3-Benzyl-2-hydroxymethyl-5,6,7,8-tetrahydro-3H-benzo[4,5]thieno[2,3-d]pyrimidin-4-one]

Reference: patent publication US7524853B2 (Solvay Pharmaceuticals B.V., priority 2003, dated 2009)
